“Also recorded” adds a separate entry of the source. Read-outs that look alike come from different tables or passages of the source. Bridge positions count the residues as written; N and C are the ends. Square brackets hold non-standard residues; d marks the D form. Peptide text beside a SMILES is read from it. hArg = N=C(N)NCCCC[C@H](N)C(=O)O
Experiments:
[1] = target: T1, PCSK9Δhelix (Homo sapiens, UniProt Q8NBP7); assay: PCSK9Δhelix/Ab20 TR-FRET binding assay
T1 construct: Human PCSK9 construct M1-Q692 with an engineered TEV site (residue deletion Y166, R167); made in house; host or cells: CHO
T1 sequence (Q8NBP7 with tags, fused parts or gaps limits assumed): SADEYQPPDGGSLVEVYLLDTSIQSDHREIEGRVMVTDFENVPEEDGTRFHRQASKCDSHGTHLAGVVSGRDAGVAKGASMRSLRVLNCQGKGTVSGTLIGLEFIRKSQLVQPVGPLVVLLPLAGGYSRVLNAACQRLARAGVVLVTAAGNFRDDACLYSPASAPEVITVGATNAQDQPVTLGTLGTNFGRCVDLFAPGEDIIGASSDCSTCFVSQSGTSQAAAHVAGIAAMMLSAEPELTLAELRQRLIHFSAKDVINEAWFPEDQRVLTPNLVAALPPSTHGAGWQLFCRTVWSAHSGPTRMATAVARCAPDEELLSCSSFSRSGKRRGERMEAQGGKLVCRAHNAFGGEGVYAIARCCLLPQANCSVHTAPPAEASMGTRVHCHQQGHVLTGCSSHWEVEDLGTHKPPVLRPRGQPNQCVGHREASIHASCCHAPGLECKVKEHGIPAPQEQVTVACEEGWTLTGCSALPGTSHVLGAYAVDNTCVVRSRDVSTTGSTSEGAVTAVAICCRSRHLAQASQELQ
T1 sequence (Q8NBP7 31-152 partner limits assumed): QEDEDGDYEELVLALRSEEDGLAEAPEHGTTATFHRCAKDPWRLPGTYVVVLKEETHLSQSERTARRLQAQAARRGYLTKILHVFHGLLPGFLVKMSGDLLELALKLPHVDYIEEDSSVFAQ

[2] = target: T2, PCSK9 (Homo sapiens, UniProt Q8NBP7); assay: PCSK9/EGF(A) TR-FRET binding assay
T2 sequence (Q8NBP7 153-692): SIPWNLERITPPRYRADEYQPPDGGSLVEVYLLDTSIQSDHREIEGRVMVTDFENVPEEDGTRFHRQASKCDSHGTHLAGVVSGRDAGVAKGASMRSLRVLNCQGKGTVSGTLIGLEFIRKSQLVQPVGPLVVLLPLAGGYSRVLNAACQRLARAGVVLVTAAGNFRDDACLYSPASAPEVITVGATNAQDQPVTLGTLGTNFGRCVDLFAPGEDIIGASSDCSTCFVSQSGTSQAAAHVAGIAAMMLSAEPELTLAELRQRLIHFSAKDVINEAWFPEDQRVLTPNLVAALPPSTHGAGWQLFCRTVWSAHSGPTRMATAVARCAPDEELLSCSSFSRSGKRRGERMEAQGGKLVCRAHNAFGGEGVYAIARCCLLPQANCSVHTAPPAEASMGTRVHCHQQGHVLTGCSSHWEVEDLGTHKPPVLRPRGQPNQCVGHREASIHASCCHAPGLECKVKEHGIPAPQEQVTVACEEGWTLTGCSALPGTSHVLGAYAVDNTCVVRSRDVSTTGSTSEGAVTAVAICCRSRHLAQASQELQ
T2 sequence (Q8NBP7 31-152 partner limits assumed): as the sequence (Q8NBP7 31-152 partner limits assumed) above

[3] = target: T1, PCSK9Δhelix; assay: Surface plasmon resonance biosensor-based affinity analysis (Example 4); format: binding; conditions: for Kd: Table 7, Target PCSK9Δhelix, SPR at 20° C., read-out: Kd
Protocol: All assays were conducted at an analysis temperature of 20° C. Samples were held at 10° C. in the sample rack to prevent denaturation of PCSK9 proteins. A biacore T100 from GE HealthCare and a SensiQ Pioneer FE were employed. All reagents were obtained from Sigma-Aldrich unless otherwise stated. The full set of peptides was analyzed using three closely related biosensor protocols that were expected to report equivalent affinity/kinetic parameters. The need for multiple protocols was related to the aggregation potential of some peptides. The buffer composition was largely conserved other than the addition of solubilizers such as dimethylsulfoxide (DMSO), 10 kDa polyvinylpyrrolidone (PVP) and 10 kDa carboxymethylated dextran (CM dextran).
A Series S NTA sensor chip was docked in the Biacore T100 biosensor system. The system was primed into running buffer (i.e. 50 mM HEPES, 0.15 M NaCl, 0.005% T20, pH 7.5). Hexahistidine-tagged proteins (“hexahistidine” disclosed as SEQ ID NO: 297) (i.e. PCSK9 or PCSK9Δhelix) were affinity captured onto separate sensing channels where at least one sensing surface remained uncoated in order to be applied as a referencing sensing surface. Compound samples were prepared in running buffer and injected. All affinity bound complexes were then removed before reloading each protein in order to test the next sample. Each sample cycle therefore consisted of five sequential injections that were repeated for each test sample as follows.
Injected sample using high quality injection mode. […] For these compounds the entire sample cycle consisting of five serial injections was repeated for each dilution. This sample cycle was a repeated sequence that is executed for each sample in the sample table.
This method was identical to method 1 except an alternative injection mode designated as single cycle kinetics (named by the manufacturer) was employed allowing a full dilution series to be completed during each sample cycle by replacing a single compound dilution injection with five sequential injections of increasing concentration. The resulting sensorgram (i.e. response curve) contained five binding-dissociation phases each associated with each injected compound dilution. The activation, capture and regeneration injections remained unchanged. […] Also CM dextran (Sigma-Aldrich product number 86524) was added to all buffers in the assay to a final concentration of 2 mg/mL in order to further lower non-specific binding to the surface. […] All recorded binding curves were automatically double referenced and fitted with a 1:1 model using BIAevaluation analysis software from GE HealthCare.
This instrument is analogous to Biacore AB biosensors in terms of surface chemistry, flow injection analysis and methodologies that can be employed except that it also provides a method to titrate compounds over the sensing surfaces.

[4] = test system: His-EGF(A)-Fc; assay: His-EGF(A)-Fc TR-FRET counterscreen
Protocol: The former was based on a TF-FRET assay to measure the association of the EGF(A) domain of the LDLR to PCSK9 (“PCSK9/EGF(A) binding assay”) whilst the latter was based on a TR-FRET assay to measure binding of Ab20 to PCSK9Δhelix (“PCSK9Δhelix/Ab20 binding assay”).
The ability of compounds to inhibit binding to PCSK9 was evaluated with a panel of time-resolved fluorescence resonance energy transfer (TR-FRET) binding assays. […] The PCSK9Δhelix/Ab20 binding assay evaluated the ability of compounds to compete with Ab20 for binding to the N-terminal groove region in a His-tagged, PCSK9Δhelix construct. […] Signal generation in the PCSK9 binding assays was dependent upon the binding interaction to bring into close proximity the His-tag on the PCSK9 and the Fc-tag on the ligand. Anti-His-APC was bound to the His-tag, and anti-Fc-europium was bound to the Fc-tag. When these two antibodies were in close proximity and were irradiated with light at 340 nm, the europium was excited and emitted energy at 615 nm. This energy was taken up by the APC and was emitted as light at 665 nm. Compounds that competed with the ligand reduced the energy transfer and thus the emission at 665 nm. In the His-EGFA-Fc molecule in the counterscreen, the two tags were always in close proximity, thus any reduction in emission at 665 nm was due to interference with the detection system.
Compounds were solubilized and dilutions were prepared in DMSO. […] The plate was centrifuged to mix the well contents and allowed to incubate for 30 min. […] The TR-FRET signal was read on a ViewLux reader (PerkinElmer) with excitation at 340 nm and emission at 615 and 665 nm with a 50-μs time delay between excitation and measurement of emission. The TR-FRET ratio was calculated as the fluorescence emission at 665 nm divided by the fluorescence emission at 615 nm. The normalized TR-FRET ratios were plotted as a function of the compound concentrations, and the IC50 values were determined using a 4-parameter logistic regression.

[5] = target: T3, PCSK9-R167A:R215A:R218A (PCSK9-AAA) (Homo sapiens, UniProt Q8NBP7, R167A/R215A/R218A); assay: FXIa cleavage assay of the P′ helix of PCSK9-AAA; format: biochemical; conditions: immunoblot with anti-N-terminal peptide antibody
T3 construct: made in house; host or cells: CHO (transient)
T3 sequence (Q8NBP7 153-692 R167A/R215A/R218A): as the sequence (Q8NBP7 153-692) above, with R15A, R63A, R66A counted along it
Protocol: The PCSK9-AAA mutant (2.6 μM) was incubated with 50 nM FXIa (Haematologic Technologies) in Tris buffer (50 mM Tris, 150 mM NaCl, 4 mM CaCl2, pH 8.0) at room temperature for the indicated time periods. […] After SDS-PAGE of the samples, proteins were transferred to a nitrocellulose membrane using iBlot (Invitrogen). Proteins were then probed with a polyclonal rabbit antibody (1:3000) raised against the PCSK9 N-terminal peptide (^153[…]^168 (SEQ ID NO: 5)), followed with HRP-conjugated donkey anti-rabbit antibody (1:5000, GE Healthcare) using iBind (Invitrogen). PCSK9 signals were detected by ECL (GE Healthcare) and visualized by autoradiography.
Proteins were then probed with a polyclonal rabbit antibody (1:3000) raised against the PCSK9 N-terminal peptide (^153[…]^168 (SEQ ID NO: 5)), followed with HRP-conjugated donkey anti-rabbit antibody (1:5000, GE Healthcare) using iBind (Invitrogen). PCSK9 signals were detected by ECL (GE Healthcare) and visualized by autoradiography.

[6] = target: T2, PCSK9; assay: PCSK9/LDLR-Fc TR-FRET assay (LDLR assay); format: binding; conditions: Table 11, LDLR-Fc, average ±S.D. of three experiments
Protocol: In black 1536-well assay plates (MaKO, Aurora® Microplates, Whitefish, Mont.), 40 nL of peptide in DMSO were preincubated with 2 μL His-tagged PCSK9 plus anti-His-allophycocyanin in assay buffer (50 mM Tris-HCl, pH 7.5, 150 mM NaCl, 2 mM CaCl2, 0.01% Tween®-20, 0.1% bovine gamma globulins, and protease inhibitor cocktail) for 30 min. Then 2 μL of Fc-tagged ligand and anti-Fc-europium in assay buffer were added and allowed to incubate for 2 h. The PCSK9 and ligand conditions for each assay are as follows: 10 nM C-terminal (His)8-tagged PCSK9 (“(His)8” disclosed as SEQ ID NO: 304) and 12 nM EGF(A)-Fc for the EGF(A) assay, 10 nM C-terminal (His)8-tagged PCSK9 (“(His)8” disclosed as SEQ ID NO: 304) and 2.5 nM LDLR-Fc for the LDLR assay, 1.25 nM C-terminal (His)8-tagged PCSK9Δhelix (“(His)8” disclosed as SEQ ID NO: 304) and 0.75 nM Ab20 for the Ab20 assay, and 2 nM His-EGF(A)-Fc alone for the counterscreen. In all assays, anti-His-allophycocyanin and anti-Fc-europium were used at 20 nM and 2 nM, respectively. Fluorescence was measured with excitation at 340 nm and emission at 671 nm and 618 nm. The TR-FRET ratio was calculated as fluorescence at 671 nm/fluorescence at 618 nm. The ratios were normalized to controls and plotted against peptide concentration to determine IC50 values (Screener Analyzer, Genedata, Basel, CH). The peptides were evaluated in three separate experiments per assay with 10-point titrations and n=2 per concentration. The values presented are the average ±S.D. of three independent experiments.

[7] = TR-FRET, Example 7, read-out: PCSK9Δhelix/Ab20 IC50
[8] = TR-FRET, Example 7, read-out: PCSK9/EGF(A) IC50
[9] = TR-FRET, Table 8D, disulfide-cyclized extension peptides, read-out: PCSK9Δhelix/Ab20 IC50
[10] = TR-FRET, Table 8D, disulfide-cyclized extension peptides, read-out: PCSK9/EGF(A) IC50
[11] = TR-FRET counterscreen, Table 8D, * = some inhibition at highest concentrations, not sufficient to fit an IC50
[12] = TR-FRET, Table 8E, additional compounds, read-out: PCSK9Δhelix/Ab20 IC50
[13] = Table 11, average ±S.D. of three experiments, read-out: Ab20 IC50
[14] = TR-FRET, Table 8E, additional compounds, read-out: PCSK9/EGF(A) IC50
[15] = Table 11, average ±S.D. of three experiments, read-out: EGF(A) IC50
[16] = TR-FRET counterscreen, Table 8E, additional compounds

Compound	IC50 [1, 7] [µM]	IC50 [2, 8] [µM]	Kd [3] [µM]	IC50 ([4]; counterscreen, Example 7) [µM]	IC50 [1, 9] [µM]	IC50 [2, 10] [µM]	IC50 [4, 11] [µM]	IC50 [1, 12] [µM]	IC50 [1, 13] [µM]	IC50 [2, 14] [µM]	IC50 [2, 15] [µM]	IC50 [6] [µM]	IC50 [4, 16] [µM]	other results
CC[C@H](C)[C@@H]1NC(=O)[C@H](CCCNC(=N)N)NC(=O)[C@H](CCCCN)NC(=O)[C@H](CC(C)C)NC(=O)[C@H](CC(N)=O)NC(=O)[C@H](Cc2c[nH]c3ccccc23)NC(=O)[C@@H](NC(=O)CCCCCNC(=O)[C@@H](NC(=O)[C@H](Cc2c[nH]c3ccccc23)NC(=O)[C@H](CC(=O)O)NC(=O)[C@H](CC(C)C)NC(=O)[C@H](Cc2ccc(O)cc2)NC(=O)[C@H](CCC(=O)O)NC(=O)[C@H](CCC(=O)O)NC(=O)[C@H](Cc2c[nH]c3ccccc23)NC(=O)[C@H](CO)NC(=O)[C@@H](NC(=O)[C@H](Cc2ccccc2)NC(=O)[C@@H](NC(=O)[C@@H](NC(C)=O)[C@@H](C)O)C(C)C)[C@@H](C)O)C(C)C)CSSC[C@@H](C(N)=O)NC(=O)CNC(=O)[C@H](CCC(N)=O)NC(=O)[C@H](CO)NC(=O)CNC1=O [Compound 17]	0.001	0.009	0.000123	> 50	–	–	–	–	–	–	–	–	–	inhibition in the PCSK9Δhelix/Ab20 binding assay [1]: maintained potency; inhibition in the PCSK9/EGF(A) binding assay [2]: maintained potency; Kd range for PCSK9Δhelix binding [3]: sub-nanomolar range
CC[C@H](C)[C@@H]1NC(=O)[C@H](CCCNC(=N)N)NC(=O)[C@H](CCC(N)=O)NC(=O)[C@H](CC(C)C)NC(=O)[C@H](CC(N)=O)NC(=O)[C@H](Cc2c[nH]c3ccccc23)NC(=O)[C@@H]2CCCN2C(=O)[C@H]([C@@H](C)CC)NC(=O)[C@H](Cc2ccccc2)NC(=O)[C@@H](NC(=O)CNC(=O)[C@H](CO)NC(C)=O)CSSC[C@@H](C(N)=O)NC(=O)[C@H](CC(C)C)NC(=O)[C@H](CC(C)C)NC(=O)CNC1=O [Compound 29] (Ac-SGCFIPWNLQRIGLLC-NH2; disulfide 3-16)	–	–	–	–	1.9	> 50	> 50	–	–	–	–	–	–	effect on FXIa-mediated cleavage of the P′ helix of PCSK9-AAA [5]: accelerated the cleavage reaction; also recorded: able to increase the FXIa-mediated cleavage; also recorded: strongly accelerated the cleavage
CC[C@H](C)[C@@H]1NC(=O)[C@H](CCCNC(=N)N)NC(=O)[C@H](CCC(N)=O)NC(=O)[C@H](CC(C)C)NC(=O)[C@H](CC(N)=O)NC(=O)[C@H](Cc2c[nH]c3ccccc23)NC(=O)[C@@H]2CCCN2C(=O)[C@H]([C@@H](C)CC)NC(=O)[C@H](Cc2ccccc2)NC(=O)[C@@H](NC(C)=O)CSSC[C@@H](C(N)=O)NC(=O)[C@H](CC(C)C)NC(=O)[C@H](CC(C)C)NC(=O)CNC1=O [Compound 31] (Ac-CFIPWNLQRIGLLC-NH2; disulfide 1-14)	–	–	3.01	–	2.4	> 50	> 50	–	–	–	–	–	–	–
CC[C@H](C)[C@H](NC(=O)[C@H](CCCCNC(=N)N)NC(=O)[C@@H](NC(=O)[C@H](CC(C)C)NC(=O)[C@H](CC(N)=O)NC(=O)[C@H](Cc1c[nH]c2ccccc12)NC(=O)CNC(=O)[C@@H]1CCCN1C(=O)[C@H](Cc1ccccc1)NC(=O)[C@H](CO)NC(=O)[C@H](CCC(=O)O)NC(C)=O)C(C)C)C(=O)NCC(=O)N[C@@H](CC(C)C)C(=O)N[C@@H](CC(C)C)C(=O)N[C@@H](CCCNC(=N)N)C(N)=O [Compound 227] (Ac-ESFPGWNLV[hArg]IGLLR-NH2)	–	–	–	–	–	–	–	24	2.51 ± 0.11	2.5	23.2 ± 0.3	> 50	≥ 50	lower inhibitory activity versus Compound 229 ([2]; Table 11): approximately 3 fold
CC[C@H](C)[C@H](NC(=O)[C@H](CCCCNC(=N)N)NC(=O)[C@@H](NC(=O)[C@H](CC(C)C)NC(=O)[C@H](CC(N)=O)NC(=O)[C@H](Cc1c[nH]c2ccccc12)NC(=O)CNC(=O)[C@@H]1CCCN1C(=O)[C@H](Cc1ccc(O)cc1)NC(=O)[C@H](CO)NC(=O)[C@H](CC(=O)O)NC(C)=O)C(C)C)C(=O)NCC(=O)N[C@@H](CC(C)C)C(=O)N[C@@H](CC(C)C)C(=O)N[C@@H](CCCNC(=N)N)C(N)=O [Compound 230] (Ac-DSYPGWNLV[hArg]IGLLR-NH2)	–	–	–	–	–	–	–	24	2.42 ± 0.2	2.3	24.2 ± 0.8	> 50	≥ 50	–
Ac-ALMPWNLVRIGLLR-NH2 [Compound 45]	2.02	> 50	8.2	> 50	–	–	–	–	–	–	–	–	–	–

From patent publication US11034725B2, “Compositions and methods for treating cardiovascular disease” (Genentech, Inc., priority 2016, dated 2021)
